Values quoted from earlier work, collected in patent publication US8858963B1, “Tamper resistant composition comprising hydrocodone and acetaminophen for rapid onset and extended duration of analgesia” (Mallinckrodt LLC, priority 2011, dated 2014).

Tested on: hepatic GSH
Conditions: Swiss mice

CC(=O)Nc1ccc(O)cc1 [acetaminophen]
onset of circulating hepatic GSH changes after administration (acetaminophen 100 mg/kg to 600 mg/kg): ≤ 15 min | time of minimum GSH level after injection (all dose groups (100 mg/kg to 600 mg/kg)): 2 h
